The target of one assay is T1, HCV NS5B (Hepatitis C virus genotype 1b, UniProt Q9WMX2).
T1 construct: The protein was expressed with an 18 amino acid C-terminal truncation to enhance the solubility; made in house; host or cells: E. coli BL21(DE3)
Briefly: HCV NS5B RdRp enzyme assay (standard / modified). To be noted: HCV RdRp genotype 1b, standard or modified assay not specified. Type of assay: biochemical. The essentials: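 Genotype 1b NS5B, 18-aa C-terminal truncation, E. coli-expressed; polyA template with biotin-oligo-dT12 primer, 3H-UTP (0.29 μM UTP), pH 7.5 Hepes, 2% DMSO, 30 °C, SPA read. Standard: 28 nM enzyme, 6 nM template, 180 nM primer, 60 min. Modified: 1.75 nM enzyme, 0.36 nM template, 20 nM bead-precaptured primer, 4 h; IC50 from seven concentrations, four-parameter fit.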

The next assay relates to HCV replicon cells. The assay can be described thus: HCV replicon FRET / luciferase assay. Type of assay: cell-based. To be noted: 50% reduction in FRET or luciferase activity in HCV replicon cells. The essentials: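 HCV replicon cells (with or without Renilla luciferase reporter) incubated with titrated compounds at 37° C; cytotoxicity read by Alamar blue. Replicon activity then read by NS3 cleavage of EDANS/DABCYL FRET peptide (20 μM final, 340/490 nm kinetic) or by luciferase; background from highest control-inhibitor wells subtracted; EC50 = concentration giving 50% signal reduction.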

The mark [1] stands for this setting: Hepatitis C virus, read-out: EC50.

Consider 27 compounds from US7547690B2, “Compounds for the treatment of Hepatitis C” (Bristol-Myers Squibb Company, priority 2007, dated 2009).

As a reminder, the IC50 is the concentration that gives 50% inhibition. For orientation: EC50 means the concentration that produces a half-maximal response.

Structures are written as SMILES. Like-named read-outs stand apart in the source and are kept apart here. Some results are limits rather than exact numbers.

T1 sequence (Q9WMX2 2420-2992): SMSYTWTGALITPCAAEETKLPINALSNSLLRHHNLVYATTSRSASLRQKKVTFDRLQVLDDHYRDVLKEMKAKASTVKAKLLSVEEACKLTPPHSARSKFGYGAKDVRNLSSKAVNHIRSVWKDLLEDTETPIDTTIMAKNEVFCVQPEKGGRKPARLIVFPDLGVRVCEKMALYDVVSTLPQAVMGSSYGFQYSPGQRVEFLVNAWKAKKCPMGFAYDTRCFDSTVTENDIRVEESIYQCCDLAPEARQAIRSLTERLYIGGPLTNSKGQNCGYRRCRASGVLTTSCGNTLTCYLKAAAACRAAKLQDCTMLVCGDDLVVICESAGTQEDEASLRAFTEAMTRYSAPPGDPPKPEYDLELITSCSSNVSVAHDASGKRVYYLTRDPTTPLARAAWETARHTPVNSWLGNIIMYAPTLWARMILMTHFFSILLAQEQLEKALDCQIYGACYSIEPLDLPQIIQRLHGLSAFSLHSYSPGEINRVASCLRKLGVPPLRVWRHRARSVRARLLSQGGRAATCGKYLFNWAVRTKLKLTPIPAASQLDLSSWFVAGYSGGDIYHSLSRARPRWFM

As to `COc1ccc2c(c1)C1CC1(C(=O)N1C[C@@H]3C[C@H]1CN3C)Cn1c-2c(C2CCCCC2)c2ccc(C(=O)NS(=O)(=O)C3CC3)cc21` (stereo partly drawn) [drawing 53], the IC50 on HCV NS5B (read-out: IC50) lay within 2.4 to 500 nM. In addition, in the assay on HCV replicon cells (read-out: EC50), the EC50 was in the range of 2.4 to 500 nM.
Take `COc1ccc2c(c1)C1CC1(C(=O)N1C3CC1CN(C)C3)Cn1c-2c(C2CCCCC2)c2ccc(C(=O)NS(=O)(=O)CC(C)(C)C)cc21` (stereo not drawn): at HCV NS5B (read-out: IC50), the IC50 lay in the range of 2.4 to 500 nM. Also, the concentration giving a half-maximal response (EC50) in the assay with HCV replicon cells (setting [1]) is 2.4 to 500 nM.
As for `COc1ccc2c(c1)C1CC1(C(=O)N1CCN3CCC1CC3)Cn1c-2c(C2CCCCC2)c2ccc(C(=O)NS(=O)(=O)N3CCN(C)CC3)cc21` (stereo not drawn), the IC50 at HCV NS5B (read-out: IC50) fell in the range of 2.4 to 500 nM. Further, the EC50 in the assay on HCV replicon cells (setting [1]) lay within 2.4 to 500 nM.
For the compound `COc1ccc2c(c1)[C@@H]1C[C@]1(C(=O)N1CC3CC1CN3C)Cn1c-2c(C2CCCCC2)c2ccc(C(=O)NS(=O)(=O)N(C)C)cc21` (stereo partly drawn), the IC50 on HCV NS5B (read-out: IC50) is less than 20 nM. Further, in the assay on HCV replicon cells (setting [1]), the EC50 is 2.4 to 500 nM.
Regarding `COc1ccc2c(c1)C1CC1(C(=O)N1CC3COCC(C1)N3Cc1ccccc1)Cn1c-2c(C2CCCCC2)c2ccc(C(=O)NS(=O)(=O)N(C)C)cc21` (stereo not drawn), the IC50 on HCV NS5B (read-out: IC50) is 2.4 to 500 nM. Further, in the assay with HCV replicon cells (setting [1]), the EC50 is 2.4 to 500 nM.
Turning to `COc1ccc2c(c1)C1CC1(C(=O)N1C3COC[C@@H]1CN(C)C3)Cn1c-2c(C2CCCCC2)c2ccc(C(=O)NS(=O)(=O)CC(F)(F)F)cc21` (stereo partly drawn), the IC50 on HCV NS5B (read-out: IC50) was in the range of 2.4 to 500 nM. For the same compound, the EC50 in the assay with HCV replicon cells (setting [1]) was 2.4 to 500 nM.
Consider `CCN1CC2CC(C1)N2C(=O)C12CC1c1cc(OC)ccc1-c1c(C3CCCCC3)c3ccc(C(=O)NS(=O)(=O)C(C)C)cc3n1C2` (stereo not drawn), for which, at HCV NS5B (read-out: IC50), the 50% inhibitory concentration (IC50) is 2.4 to 500 nM. Further, in the assay with HCV replicon cells (setting [1]), the EC50 is 2.4 to 500 nM.
On to `CCN1CC2CC(C1)N2C(=O)[C@]12C[C@H]1c1cc(OC)ccc1-c1c(C3CCCCC3)c3ccc(C(=O)NS(=O)(=O)N(C)C)cc3n1C2`, for which the IC50 at HCV NS5B (read-out: IC50) fell in the range of 2.4 to 500 nM. The concentration for a half-maximal effect (EC50) in the assay on HCV replicon cells (setting [1]) fell in the range of 2.4 to 500 nM.
For the compound `COc1ccc2c(c1)[C@@H]1C[C@]1(C(=O)N1C3CCC1C1CCC3N1C)Cn1c-2c(C2CCCCC2)c2ccc(C(=O)NS(=O)(=O)N(C)C)cc21` [drawing 161], at HCV NS5B, the IC50 was in the range of 2.4 to 500 nM. Also, the EC50 with HCV replicon cells was in the range of 2.4 to 500 nM.
For the compound `COc1ccc2c(c1)[C@@H]1C[C@]1(C(=O)N1[C@@H]3C[C@H]1CN(C)C3)Cn1c-2c(C2CCCCC2)c2ccc(C(=O)NS(=O)(=O)N(C)C)cc21`, the IC50 at HCV NS5B (read-out: IC50) is 2.4 to 500 nM. For the same compound, in the assay on HCV replicon cells (setting [1]), the EC50 lay in the range of 2.4 to 500 nM.
Regarding `COc1ccc2c(c1)C1CC1(C(=O)N1C[C@H]3C[C@@H]1CN3C(=O)OC(C)(C)C)Cn1c-2c(C2CCCCC2)c2ccc(C(=O)NS(C)(=O)=O)cc21` (stereo partly drawn), the IC50 on HCV NS5B (read-out: IC50) lay in the range of 2.4 to 500 nM. Also, in the assay with HCV replicon cells (setting [1]), the EC50 was 2.4 to 500 nM.
Take `COc1ccc2c(c1)C1CC1(C(=O)N1C[C@H]3C[C@@H]1CN3CC(C)C)Cn1c-2c(C2CCCCC2)c2ccc(C(=O)NS(=O)(=O)C3CC3)cc21` (stereo partly drawn): on HCV NS5B (read-out: IC50), the IC50 lay in the range of 2.4 to 500 nM. Moreover, in the assay on HCV replicon cells (setting [1]), the EC50 lay in the range of 2.4 to 500 nM.
Consider `COc1ccc2c(c1)C1CC1(C(=O)N1C[C@@H]3C[C@H]1CN3CC(C)C)Cn1c-2c(C2CCCCC2)c2ccc(C(=O)NS(=O)(=O)C(C)C)cc21` (stereo partly drawn) [drawing 95], for which the IC50 on HCV NS5B (read-out: IC50) lay in the range of 2.4 to 500 nM. Further, the EC50 with HCV replicon cells (read-out: EC50) fell in the range of 2.4 to 500 nM.
Take `COc1ccc2c(c1)C1CC1(C(=O)N1CC3(C)CN(C)CC(C)(C1)C3)Cn1c-2c(C2CCCCC2)c2ccc(C(=O)NS(=O)(=O)N(C)C)cc21` (stereo not drawn): the IC50 at HCV NS5B (read-out: IC50) lay in the range of 2.4 to 500 nM. Moreover, the EC50 in the assay on HCV replicon cells (setting [1]) was in the range of 2.4 to 500 nM.
As to `COc1ccc2c(c1)C1CC1(C(=O)N1C3COCC1CN(C)C3)Cn1c-2c(C2CCCCC2)c2ccc(C(=O)NS(=O)(=O)N(C)C)cc21` (stereo not drawn), the IC50 at HCV NS5B (read-out: IC50) fell in the range of 2.4 to 500 nM. The EC50 in the assay with HCV replicon cells (setting [1]) lay within 2.4 to 500 nM.
Take `COc1ccc2c(c1)C1CC1(C(=O)N1[C@@H]3C[C@H]1CN(C)C3)Cn1c-2c(C2CCCCC2)c2ccc(C(=O)NS(=O)(=O)C3CC3)cc21` (stereo partly drawn): the IC50 on HCV NS5B (read-out: IC50) is 2.4 to 500 nM. The EC50 with HCV replicon cells (setting [1]) fell in the range of 2.4 to 500 nM.
With `COc1ccc2c(c1)C1CC1(C(=O)N1C3CC1CN(C)C3)Cn1c-2c(C2CCCCC2)c2ccc(C(=O)NS(=O)(=O)CC(C)C)cc21` (stereo not drawn), the IC50 at HCV NS5B (read-out: IC50) lay in the range of 2.4 to 500 nM. In addition, the EC50 in the assay on HCV replicon cells (setting [1]) was 2.4 to 500 nM.
On to `COc1ccc2c(c1)C1CC1(C(=O)N1C[C@H]3C[C@@H]1CN3C(=O)OC(C)(C)C)Cn1c-2c(C2CCCCC2)c2ccc(C(=O)NS(=O)(=O)N3CCC3)cc21` (stereo partly drawn), for which the IC50 at HCV NS5B (read-out: IC50) was 2.4 to 500 nM. Moreover, in the assay with HCV replicon cells (setting [1]), the EC50 was in the range of 2.4 to 500 nM.
Turning to `COc1ccc2c(c1)C1CC1(C(=O)N1CC3COCC(C1)N3)Cn1c-2c(C2CCCCC2)c2ccc(C(=O)NS(=O)(=O)N(C)C)cc21` (stereo not drawn), the IC50 at HCV NS5B (read-out: IC50) was in the range of 2.4 to 500 nM. The concentration for a half-maximal effect (EC50) in the assay with HCV replicon cells (setting [1]) lay in the range of 2.4 to 500 nM.
Take `COc1ccc2c(c1)C1CC1(C(=O)N1C3COC[C@@H]1CN(C)C3)Cn1c-2c(C2CCCCC2)c2ccc(C(=O)NS(=O)(=O)C3CCCC3)cc21` (stereo partly drawn): the half-maximal inhibitory concentration (IC50) at HCV NS5B (read-out: IC50) is 2.4 to 500 nM. The EC50 in the assay with HCV replicon cells (setting [1]) is 2.4 to 500 nM.
`COc1ccc2c(c1)C1CC1(C(=O)N1C[C@]3(C)CN(C)C[C@](C)(C1)C3O)Cn1c-2c(C2CCCCC2)c2ccc(C(=O)NS(=O)(=O)N(C)C)cc21` (stereo partly drawn): on HCV NS5B (read-out: IC50), the IC50 fell in the range of 2.4 to 500 nM. Further, the EC50 in the assay with HCV replicon cells (setting [1]) is 2.4 to 500 nM.
`COc1ccc2c(c1)C1CC1(C(=O)N1C3CC1CN(C)C3)Cn1c-2c(C2CCCCC2)c2ccc(C(=O)NS(=O)(=O)C3CCOCC3)cc21` (stereo not drawn): at HCV NS5B (read-out: IC50), the IC50 lay within 2.4 to 500 nM. Further, the EC50 in the assay with HCV replicon cells (setting [1]) lay within 2.4 to 500 nM.
Consider `COc1ccc2c(c1)C1CC1(C(=O)N1CCN3CCC1CC3)Cn1c-2c(C2CCCCC2)c2ccc(C(=O)NS(=O)(=O)C(C)C)cc21` (stereo not drawn), for which, on HCV NS5B (read-out: IC50), the IC50 was in the range of 2.4 to 500 nM. For the same compound, the EC50 with HCV replicon cells (setting [1]) was in the range of 2.4 to 500 nM.
Regarding `COc1ccc2c(c1)C1CC1(C(=O)N1C[C@H]3C[C@@H]1CN3C(=O)OC(C)(C)C)Cn1c-2c(C2CCCCC2)c2ccc(C(=O)NS(=O)(=O)C(C)C)cc21` (stereo partly drawn), at HCV NS5B (read-out: IC50), the IC50 was 2.4 to 500 nM. Moreover, in the assay with HCV replicon cells (setting [1]), the EC50 fell in the range of 2.4 to 500 nM.
For the compound `COc1ccc2c(c1)C1CC1(C(=O)N1CC3CN(C)CC(C1)N3C)Cn1c-2c(C2CCCCC2)c2ccc(C(=O)NS(=O)(=O)N(C)C)cc21` (stereo not drawn), the IC50 on HCV NS5B (read-out: IC50) lay within 2.4 to 500 nM. The 50% effective concentration (EC50) with HCV replicon cells (setting [1]) lay in the range of 2.4 to 500 nM.
As for `COc1ccc2c(c1)C1CC1(C(=O)N1CC3CN(Cc4ccccc4)CC(C1)N3Cc1ccccc1)Cn1c-2c(C2CCCCC2)c2ccc(C(=O)NS(=O)(=O)N(C)C)cc21` (stereo not drawn), the IC50 on HCV NS5B (read-out: IC50) is 2.4 to 500 nM. In addition, in the assay with HCV replicon cells (setting [1]), the EC50 lay in the range of 500 to 5000 nM.
`COCCN1CC2CCC1CN2C(=O)[C@]12C[C@H]1c1cc(OC)ccc1-c1c(C3CCCCC3)c3ccc(C(=O)NS(=O)(=O)C(C)C)cc3n1C2` (stereo partly drawn): on HCV NS5B (read-out: IC50), the IC50 was 2.4 to 500 nM. Besides, the concentration for a half-maximal effect (EC50) in the assay on HCV replicon cells (setting [1]) lay within 2.4 to 500 nM.
